Data from US10351519B2, “Sulfamate derivative compounds, processes for preparing them and their uses” (BIO-PHARM SOLUTIONS CO., LTD., priority 2016, dated 2019).

How the values were obtained:
Type in all cases: in vivo
Sprague-Dawley rats [1] = assay: Antiallodynic activity on Chung model (SNL, spinal nerve ligation); settings: orally; for ED50: Rattus norvegicus, po, at peak time
Text: Male Sprague-Dawley rats (100-130 g, Orient Bio, Korea) were habituated for 1 week before the experiment and allowed free access to food and water throughout the experimentation. Room temperature and humidity were maintained at 24±2 and 50±10%, respectively. The neuropathic surgery (SNL, Spinal nerve ligation) model was done as described in Kim and Chung (1992). Briefly, an animal was put under gaseous anesthesia with isoflurane. The left lumber spinal nerve L5 and L6 were isolated and tightly ligated with 6-0 silk thread. The wound muscle was closed with Catgut® chrom 3/0 thread and skin was closed with Dafilon 3/0 tread. Sham controls were prepared in the same manner with the spinal nerves exposed, but with no ligated L5 and L6 nerves. Preparation of the vehicle controls were identical to the group treated with compound, except for administration of vehicles without compound in the vehicle control group.
Tactile sensitivity (Mechanical allodynia) was evaluated using von Frey monofilaments before and after treatment, and animals were included in the study only if the withdrawal threshold value was less than 4 g. One week after surgery, SNL-operated animals, sham-operated animals and vehicle control animals were tested for tactile sensitivity with von Frey monofilaments 3 trials in each animal. All Animals were placed in a stainless steel mash chamber and habituated for 30 min in the test cage. The tactile sensitivity for the ipsilateral hind paw was measured using the up-and-down method (Dixon, 1980) with seven von Frey monofilaments (0.4, 1, 2, 4, 6, 8, and 15 g) in 3 trials. The tactile sensitivity test was followed by Dixon's method (Dixon, 1980). The 50% paw withdrawal threshold for each paw was calculated using the following formula: [Xth] log=[vFr] log+ky where [vFr] is the force of the last von Frey used, k=0.2249 which is the average interval (in log units) between the von Frey monofilaments, and y is a value that depends upon the pattern of withdrawal responses (Dixon, 1980).
All animals were fasted 18 h before the administration of the compounds. Antiallodynic effect of compounds were evaluated at the three dose, orally administrated in a volume of 5 ul/g, bw in a vehicle of 30% (v/v) PEG 400 or 20% (v/v) Tween 80. The test was performed at the peak time of efficacy after compound administration.
The relative values compared to the sham group (% control) were calculated and shown in Table 3, which show an antiallodynic effect of the test compounds on SNL model in rats.

ICR mice = assay: Anti-epilepsy activity, MES test, mouse; settings: for ED50: po
How it was run: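 Maximal electroshock delivered through corneal electrodes at 60 Hz for 0.2 s: 50 mA for male ICR mice (19–25 g), 150 mA for male SD rats (100–130 g). Compounds given orally in 30% PEG 400 or 20% Tween 80 in saline, tested at peak time, three doses per compound. ED50 for seizure protection derived by Litchfield–Wilcoxon log-probit analysis.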

Sprague-Dawley rats [2] = assay: Lithium-pilocarpine induced epilepsy test, prevention; settings: for ED50: Rattus norvegicus, ip, read-out: Lithium pilocarpine model (pre) ED50; for Lithium pilocarpine model (pre) peak time: i.p.
Procedure: Male Sprague-Dawley rats (purchased from Orient Bio Inc. Korea) of body weight 175-200 grams were used for these studies and 3 rats per cage were housed for 4-5 days. On the day prior to SE, rats received 127 mg/kg lithium chloride (Sigma, St. Louis, Mo., U.S.A.) intraperitoneally (i.p.). Approximately 18-20 h following this treatment, rats were given an i.p. injection of CD97 dose (30-43 mg/kg) pilocarpine (Sigma). An i.p. injection of 2 mg/kg methyl-scopolamine (Sigma) was administered 30 min prior to pilocarpine to block the effects of the muscarinic agonist on peripheral cholinergic receptors. Test drugs were dissolved in 30% PEG 400 or 20% tween80 (Sigma).
The drugs were administered intraperitoneally (i.p.) in a volume of 2 ul/g body weight. Pharmacological effects of all of the test materials were evaluated to compare test groups (n=6) with a control group (n=6). Control group was administered vehicle only. The efficacy was measured 0.5, 1, 2, or 4 hours after the administration of the test material. The time point that the most animals were protected was defined as peak time and the ED50 was determined at peak time. The animals were then transferred to observation cages and observed continuously for 90 min. Seizure was elicited in approximately 95% of the control group. Protection was defined as complete absence of seizure grade 3-5 (Racine scale; Racine, 1972) over the 90-min observation period. The effective dose of the compound necessary to protect 50% of the animals against seizures compared to controls (i.e. ED50) was determined by a curve fitting program (Excel 2007, Microsoft).

Question: What does the source list for C[C@@H](OS(N)(=O)=O)[C@H](O)c1ccccc1Cl [Example 2, (1R, 2R)-1-(2-chlorophenyl)-1-hydroxypropan-2-yl sulfamate]?
Answer: SNL Peak Time (Sprague-Dawley rats [1]): 1 h; SNL efficacy % (Sprague-Dawley rats [1]; 30 mg/kg): 30(38.6%); MES test (po) Peak time (ICR mice): 2 h; ED50 (ICR mice): 22.8 mg/kg

Question: For C[C@@H](OS(N)(=O)=O)[C@H](O)c1c(Cl)cccc1Cl [Example 8, (1R, 2R)-1-(2,6-dichlorophenyl)-1-hydroxypropan-2-yl sulfamate], which ED50 (Sprague-Dawley rats [1]) is on record?
Answer: Its ED50 is 35.3 mg/kg.

Question: And the “SNL Peak Time” value (Sprague-Dawley rats [1])?
Answer: The value was 1 h.

Question: What about the “MES test (po) Peak time” value (ICR mice) of the same molecule?
Answer: The value was 2 h.

Question: What about the ED50 (ICR mice) of the same molecule?
Answer: Its ED50 is 27.9 mg/kg.

Question: And the ED50 (Sprague-Dawley rats [2])?
Answer: The ED50 was 29.3 mg/kg.

Question: What about the “Lithium pilocarpine model (pre) peak time” value (Sprague-Dawley rats [2]) of the same molecule?
Answer: The value was “(2 h)”.

Question: How did the ED50 (Sprague-Dawley rats [1]) turn out when C[C@H](OS(N)(=O)=O)[C@@H](O)c1c(Cl)cccc1Cl [Example 7, (1S, 2S)-1-(2,6-dichlorophenyl)-1-hydroxypropan-2-yl sulfamate] was run?
Answer: Its ED50 is 4.4 mg/kg.

Question: What about the “SNL Peak Time” value (Sprague-Dawley rats [1]) of the same molecule?
Answer: Its value is 0.5 h.

Question: What about the “MES test (po) Peak time” value (ICR mice) of the same molecule?
Answer: The value was 1 h.

Question: What about the ED50 (ICR mice) of the same molecule?
Answer: Its ED50 is 40.7 mg/kg.

Question: And the ED50 (Sprague-Dawley rats [2])?
Answer: The ED50 was 23.3 mg/kg.

Question: And the “Lithium pilocarpine model (pre) peak time” value (Sprague-Dawley rats [2])?
Answer: Its value is “(0.5 h)”.

Question: Which results are given for COCO[C@H](c1ccccc1Cl)[C@@H](C)OS(N)(=O)=O [Example 70, (1R, 2R)-1-(2-chlorophenyl)-1-(methoxymethoxy)propan-2-yl sulfamate]?
Answer: ED50 (Sprague-Dawley rats [1]): 6.5 mg/kg; SNL Peak Time (Sprague-Dawley rats [1]): 1 h; MES test (po) Peak time (ICR mice): 2 h; ED50 (ICR mice): 50.5 mg/kg; ED50 (Sprague-Dawley rats [2]): 100 mg/kg; Lithium pilocarpine model (pre) peak time (Sprague-Dawley rats [2]): (0.5 h)
